Data from patent US20210348120A1, “Polarised Three-Dimensional Cellular Aggregates” (CAMBRIDGE ENTERPRISE LIMITED, priority 2018, published 2021).

System: gastruloid cardiac portion
Assay: Calcium imaging of the gastruloid cardiac portion
Type: cell-based, mouse
Conditions: 168 h gastruloids, 1 μM, light sheet imaging with Cal-520
Experimental: To image calcium fluxes, gastruloids were incubated for 1 h with 8 μM Cal-520 (AAT Bioquest) at 37° C., 5% CO2. Gastruloids were then transferred to fresh medium before imaging. Imaging was performed with a Light sheet Z1 microscope (Zeiss) equipped with an environmental chamber to maintain gastruloids at 37° C. and 5% CO2. For imaging, gastruloids were embedded in 1% low melt agarose and the chamber was filled with culture medium. Nifidepine (Sigma Aldrich, 10 μM) and Isoproterenol (Isoprenaline hydrochloride, Sigma 15627, 1 μM) were added with a syringe directly to the imaging chamber during acquisition. The analysis of calcium spikes was performed with the Fiji Stacks-plot Z-Axis profile plugin. The baseline intensity was normalized to the minimum value over 10 sec.

CC(C)NCC(O)c1ccc(O)c(O)c1 (stereo not shown) [isoproterenol, Isoproterenol]
calcium spiking frequency: increase in spiking frequency
